From US11339171B2, “MDM2 inhibitors” (Gan & Lee Pharmaceuticals, priority 2017, dated 2022)
pIC50: −log10 of the molar value.

Experiments:
MDM2 = biological target: T1, MDM2 (Homo sapiens, UniProt Q00987); test: Inhibition test of MDM2-P53 (GST-MDM2, Biotin-P53, Anti-GST-Tb, SA-XL665); type: binding
T1 construct: made in house
In short: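 HTRF-type assay using 4 nM GST-MDM2 (final), Biotin-P53, SA-XL665 and anti-GST-Tb in PBS with 0.1% BSA, 5 mM DTT and 1 mM AEBSF. Compounds in 5-fold serial dilutions over twelve points; incubation 90 min at 25° C with shaking before plate-reader read-out.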

[1] = system: human osteosarcoma cell line SJSA-1; test: Inhibition of proliferation of human osteosarcoma cell line SJSA-1 (DAPI staining, In Cell Analyzer); settings: Homo sapiens, SJSA-1, 72 h, read-out: IC50 (nM), inhibitory activity on proliferation of human osteosarcoma cell line SJSA-1, SJSA-1, incubated 72 h

T1 sequence (Q00987 whole entry): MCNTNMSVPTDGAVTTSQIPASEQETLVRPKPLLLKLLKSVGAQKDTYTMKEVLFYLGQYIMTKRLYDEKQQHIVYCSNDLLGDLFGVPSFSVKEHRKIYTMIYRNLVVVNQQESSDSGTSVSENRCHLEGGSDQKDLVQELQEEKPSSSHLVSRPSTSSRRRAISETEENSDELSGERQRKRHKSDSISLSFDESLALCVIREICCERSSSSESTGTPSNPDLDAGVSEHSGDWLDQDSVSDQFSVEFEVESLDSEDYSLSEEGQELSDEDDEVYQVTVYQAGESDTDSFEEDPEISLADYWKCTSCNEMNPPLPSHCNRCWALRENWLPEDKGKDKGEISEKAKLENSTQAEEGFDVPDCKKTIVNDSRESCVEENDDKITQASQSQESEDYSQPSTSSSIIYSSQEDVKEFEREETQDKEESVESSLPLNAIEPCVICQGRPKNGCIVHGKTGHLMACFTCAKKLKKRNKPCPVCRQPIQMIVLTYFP

Row | SMILES | pIC50 (MDM2) | IC50 [1] [nM]
1 | COc1cc(N(C)C)ccc1-c1nc2c(n1C(C)C)[C@@]1(C(=O)Nc3cc(Cl)ccc31)N(c1cccc(Cl)c1)C2=O [Example S-104, (S)-6-chloro-5′-(3-chlorophenyl)-2′-(4-(dimethylamino)-2-methoxyphenyl)-3′-isopropyl-3′H-spiro[dihydroindole-3,4′-pyrrolo[3,4-d]imidazole]-2,6′(5′H)-dione] | 8.65 | 266
2 | CCN(CC)c1ccc(-c2nc3c(n2C(C)C)[C@@]2(C(=O)Nc4cc(Cl)ccc42)N(c2cc(Cl)ccc2C)C3=O)c(OC)c1 [Example S-105, (S)-6-chloro-5′-(5-chloro-2-methylphenyl)-2′-(4-(diethylamino)-2-methoxyphenyl)-3′-isopropyl-3′H-spiro[dihydroindole-3,4′-pyrrolo[3,4-d]imidazole]-2,6′(5′H)-dione] | 7.95 | 243
3 | COc1cc(C2CC2)ncc1-c1nc2c(n1C(C)C)[C@@]1(C(=O)Nc3cc(Cl)ccc31)N(c1cccc(Cl)c1)C2=O [Example S-106, (S)-6-chloro-5′-(3-chlorophenyl)-2′-(6-cyclopropyl-4-methoxypyridin-3-yl)-3′-isopropyl-3′H-spiro[dihydroindole-3,4′-pyrrolo[3,4-d]imidazole]-2,6′(5′H)-dione] | 8.59 | 33.5
4 | CCc1ccc(-c2nc3c(n2C(C)C)[C@@]2(C(=O)Nc4cc(Cl)ccc42)N(c2cccc(Cl)c2)C3=O)c(OC)c1 [Example S-107, (S)-6-chloro-5′-(3-chlorophenyl)-2′-(4-ethyl-2-methoxyphenyl)-3′-isopropyl-3′H-spiro[dihydroindole-3,4′-pyrrolo[3,4-d]imidazole]-2,6′(5′H)-dione] | 8.34 | 115
5 | COc1cc(C2CC2)cc(OC)c1-c1nc2c(n1C(C)C)[C@@]1(C(=O)Nc3cc(Cl)ccc31)N(c1cc(Cl)ccc1C)C2=O [Example S-108, (S)-6-chloro-5′-(5-chloro-2-methylphenyl)-2′-(4-cyclopropyl-2,6-dimethoxyphenyl)-3′-isopropyl-3′H-spiro[dihydroindole-3,4′-pyrrolo[3,4-d]imidazole]-2,6′(5′H)-dione] | 8.05 | 28.8
6 | COc1cc(C)ccc1-c1nc2c(n1C(C)C)[C@@]1(C(=O)Nc3cc(Cl)ccc31)N(c1cccc(Cl)c1)C2=O [Example S-109, (S)-6-chloro-5′-(3-chlorophenyl)-3′-isopropyl-2′-(2-methoxy-4-methylphenyl)-3′H-spiro[dihydroindole-3,4′-pyrrolo[3,4-d]imidazole]-2,6′(5′H)-dione] | 8.63 | 54.6
7 | COc1cc(OC2CC2)ncc1-c1nc2c(n1C(C)C)[C@@]1(C(=O)Nc3cc(Cl)ccc31)N(c1cc(Cl)ccc1C)C2=O [Example S-110, (S)-6-chloro-5′-(5-chloro-2-methylphenyl)-2′-(6-cyclopropoxy-4-methoxypyridin-3-yl)-3′-isopropyl-3′H-spiro[dihydroindole-3,4′-pyrrolo[3,4-d]imidazole]-2,6′(5′H)-dione] | 8.80 | 78
8 | COc1cc(N(C)C)ncc1-c1nc2c(n1C(C)C)[C@@]1(C(=O)Nc3cc(Cl)ccc31)N(c1cc(Cl)ccc1C)C2=O [Example S-111, (S)-6-chloro-5′-(5-chloro-2-methylphenyl)-2′-(6-(dimethylamino)-4-methoxypyridin-3-yl)-3′-isopropyl-3′H-spiro[dihydroindole-3,4′-pyrrolo[3,4-d]imidazole]-2,6′(5′H)-dione] | 8.82 | 13
9 | COc1nc(N(C)C)ncc1-c1nc2c(n1C(C)C)[C@@]1(C(=O)Nc3cc(Cl)ccc31)N(c1cccc(Cl)c1)C2=O [Example S-112, (S)-6-chloro-5′-(3-chlorophenyl)-2′-(2-(dimethylamino)-4-methoxypyrimidin-5-yl)-3′-isopropyl-3′H-spiro[dihydroindole-3,4′-pyrrolo[3,4-d]imidazole]-2,6′(5′H)-dione] | 8.94 | 90.6
10 | COc1cc(N(C)C)ncc1-c1nc2c(n1C(C)C)[C@@]1(C(=O)Nc3cc(Cl)ccc31)N(c1cccc(Cl)c1)C2=O [Example S-113, (S)-6-chloro-5′-(3-chlorophenyl)-2′-(6-(dimethylamino)-4-methoxypyridin-3-yl)-3′-isopropyl-3′H-spiro[dihydroindole-3,4′-pyrrolo[3,4-d]imidazole]-2,6′(5′H)-dione] | 8.90 | 26.7
11 | COc1nc(N2CCCC2)ncc1-c1nc2c(n1C(C)C)[C@@]1(C(=O)Nc3cc(Cl)ccc31)N(c1cc(Cl)ccc1C)C2=O [Example S-114, (S)-6-chloro-5′-(5-chloro-2-methylphenyl)-3′-isopropyl-2′-(4-methoxy-2-(pyrrolidine-1-yl)pyrimidin-5-yl)-3′H-spiro[dihydroindole-3,4′-pyrrolo[3,4-d]imidazole]-2,6′(5′H)-dione] | 8.49 | 10.1
12 | COc1cc(C2CC2)ccc1-c1nc2c(n1C(C)C)[C@@]1(C(=O)Nc3cc(Cl)ccc31)N(c1cccc(Cl)c1)C2=O [Example S-116, (S)-6-chloro-5′-(3-chlorophenyl)-2′-(4-cyclopropyl-2-methoxyphenyl)-3′-isopropyl-3′H-spiro[dihydroindole-3,4′-pyrrolo[3,4-d]imidazole]-2,6′(5′H)-dione] | 8.38 | 213
13 | COc1nc(N2CCC2)ncc1-c1nc2c(n1C(C)C)[C@@]1(C(=O)Nc3cc(Cl)ccc31)N(c1cc(Cl)ccc1C)C2=O [Example S-117, (S)-2′-(2-(12zetidine-1-yl)-4-methoxypyrimidin-5-yl)-6-chloro-5′-(5-chloro-2-methylphenyl)-3′-isopropyl-3′H-spiro[dihydroindole-3,4′-pyrrolo[3,4-d]imidazole]-2,6′(5′H)-dione] | 8.67 | 14.4
14 | COc1nc(C)ncc1-c1nc2c(n1C(C)C)[C@@]1(C(=O)Nc3cc(Cl)ccc31)N(c1cc(Cl)ccc1C)C2=O [Example S-118, (S)-6-chloro-5′-(5-chloro-2-methylphenyl)-3′-isopropyl-2′-(4-methoxy-2-methylpyrimidin-5-yl)-3′H-spiro[dihydroindole-3,4′-pyrrolo[3,4-d]imidazole]-2,6′(5′H)-dione] | 8.45 | 107
15 | CCN(C)c1ncc(-c2nc3c(n2C(C)C)[C@@]2(C(=O)Nc4cc(Cl)ccc42)N(c2cc(Cl)ccc2C)C3=O)c(OC)n1 [Example S-119, (S)-6-chloro-5′-(5-chloro-2-methylphenyl)-2′-(2-(ethyl(methyl)amino)-4-methoxypyrimidin-5-yl)-3′-isopropyl-3′H-spiro[dihydroindole-3,4′-pyrrolo[3,4-d]imidazole]-2,6′(5′H)-dione] | 8.62 | 20
16 | COc1cc(OC(F)(F)F)ccc1-c1nc2c(n1C(C)C)[C@@]1(C(=O)Nc3cc(Cl)ccc31)N(c1cccc(Cl)c1)C2=O [Example S-120, (S)-6-chloro-5′-(3-chlorophenyl)-3′-isopropyl-2′-(2-methoxy-4-(trifluoromethoxy)phenyl)-3′H-spiro[dihydroindole-3,4′-pyrrolo[3,4-d]imidazole]-2,6′(5′H)-dione] | 8.05 | 364
17 | COc1nc(C2CC2)ncc1-c1nc2c(n1C(C)C)[C@@]1(C(=O)Nc3cc(Cl)ccc31)N(c1cccc(Cl)c1)C2=O [Example S-122, (S)-6-chloro-5′-(3-chlorophenyl)-2′-(2-cyclopropyl-4-methoxypyrimidin-5-yl)-3′-isopropyl-3′H-spiro[dihydroindole-3,4′-pyrrolo[3,4-d]imidazole]-2,6′(5′H)-dione] | 8.56 | 117
18 | CCOc1ncc(-c2nc3c(n2C(C)C)[C@@]2(C(=O)Nc4cc(Cl)ccc42)N(c2cccc(Cl)c2)C3=O)c(OC)n1 [Example S-123, (S)-6-chloro-5′-(3-chlorophenyl)-2′-(2-ethoxy-4-methoxypyrimidin-5-yl)-3′-isopropyl-3′H-spiro[dihydroindole-3,4′-pyrrolo[3,4-d]imidazole]-2,6′(5′H)-dione] | 8.68 | 321
19 | COc1nc(OC(C)C)ncc1-c1nc2c(n1C(C)C)[C@@]1(C(=O)Nc3cc(Cl)ccc31)N(c1cccc(Cl)c1)C2=O [Example S-124, (S)-6-chloro-5′-(3-chlorophenyl)-2′-(2-isopropoxy-4-methoxypyrimidin-5-yl)-3′-isopropyl-3′H-spiro[dihydroindole-3,4′-pyrrolo[3,4-d]imidazole]-2,6′(5′H)-dione] | 8.54 | 129
20 | COc1nc(OC(C)C)ncc1-c1nc2c(n1C(C)C)[C@@]1(C(=O)Nc3cc(Cl)ccc31)N(c1cc(Cl)ccc1C)C2=O [Example S-126, (S)-6-chloro-5′-(5-chloro-2-methylphenyl)-2′-(2-isopropoxy-4-methoxypyrimidin-5-yl)-3′-isopropyl-3′H-spiro[dihydroindole-3,4′-pyrrolo[3,4-d]imidazole]-2,6′(5′H)-dione] | 8.82 | 79.6
21 | CCOc1ncc(-c2nc3c(n2C(C)C)[C@@]2(C(=O)Nc4cc(Cl)ccc42)N(c2cc(Cl)ccc2C)C3=O)c(OC)n1 [Example S-127, (S)-6-chloro-5′-(5-chloro-2-methylphenyl)-2′-(2-ethoxy-4-methoxypyrimidin-5-yl)-3′-isopropyl-3′H-spiro[dihydroindole-3,4′-pyrrolo[3,4-d]imidazole]-2,6′(5′H)-dione] | 8.56 | 83.2
22 | COc1cc(C#N)ccc1-c1nc2c(n1C(C)C)[C@@]1(C(=O)Nc3cc(Cl)ccc31)N(c1cccc(Cl)c1)C2=O [Example S-128, (S)-4-(6-chloro-5′-(3-chlorophenyl)-3′-isopropyl-2,6′-dioxo-5′,6′-dihydro-3′H-spiro[dihydroindole-3,4′-pyrrolo[3,4-d]imidazole]-2′-yl)-3-methoxybenzonitrile] | 8.96 | 145
